“Also recorded” adds a separate entry of the source.
What was measured:
[1] = pKa of testosterone; settings: deduced from the molecular structure
[2] = Solubility of testosterone in water, solvents, oils and vehicles

SMILES: C[C@]12CC[C@H]3[C@@H](CCC4=CC(=O)CC[C@@]43C)[C@@H]1CC[C@@H]2O [Testosterone, 17ß-Hydroxyandrost-4-en-3-one]
- pKa [1]: no pKa value in the range 1-14
- Solubility in oils ([2]; castor oil): up to 4%
- Solubility in castor oil ([2]; castor oil pure, maximum): 3.6%
- Solubility in castor oil ([2]; castor oil with 4% Labrafil): ~3.36%
- Solubility in oils ([2]; corn oil): 0.5%
- Solubility in oils ([2]; cottonseed oil): 0.7%
- Solubility in oils ([2]; isopropylmyristate): 0.8%
- Solubility in oils ([2]; peanut oil): 0.5%
- Solubility (descriptive) ([2]; solvent named in the value): freely soluble in methanol and ethanol; also recorded: soluble in acetone and isopropanol; also recorded: insoluble in n-heptane
- Solubility in oils ([2]; soybean oil): 0.6%
- Solubility in castor oil ([2]; with fumed silica (Aerosil, CabOsil) and 4.0% Labrafil): up to 4.5%

From patent US20250009756A1 (Acerus Biopharma Inc., priority 2012, published 2025)
